The results in this text go back to patent US20060173162A1, “Bactericidak anti-apoptotic, pro-inflammatory and anti-inflammatory peptides of heparin-binding protein (hbp)” (priority 2002, published 2006).

Holding throughout (type): cell-based
Assay [1] has as its system monocytes in WB. Description: IL-6 secretion in citrated human whole blood (screening for inflammatory and anti-inflammatory potential). The note with it: for LPS induced IL-6 production, variant compared to the unsubstituted peptide: in the presence of LPS, FIG. 7; for PGN induced IL-6 production, variant compared to the unsubstituted peptide: FIG. 8; for effect on LPS induced IL-6 secretion: 100 ng/ml LPS, FIG. 2; for effect on PCW induced IL-6 secretion: PCW 50 μg/ml from Staphylococcus aureus, FIG. 4; for IL-6 secretion in the absence of bacterial components: no bacterial component, peptide 0.09, 0.18, 0.36 and 0.71 mg/ml blood, FIG. 1. An excerpt:
Human whole blood (WB) contains besides red cells, platelets and plasma the white blood cells including the neutrophils and monocytes. Neutrophils and monocytes have receptors for bacterial products such as LPS, PGN and LTA. The bacterial products react directly or via specific binding proteins to receptors on the monocytes thereby stimulating them to secrete and release inflammatory cytokines comprising, but not limited to IL-1, IL-6, and TNF-α.
In the example to be described LPS from the E. coli is used to stimulate the monocytes in WB (anti-coagulated by use of citrate) and the activity is measured by subsequently quantifying IL-6 in plasma separated from WB. The activity of HBP, HBP derived peptides and analogues hereof are evaluated by their ability to: • 1. increase IL-6 secretion in absence of bacterial products • 2. increase IL-6 secretion in presence of bacterial products • 3. decrease IL-6 secretion in presence of bacterial products • 4. inhibit amplification of cytokine secretion induced by intact HBP
All operations must be carried out in LAF cabinet by observance of stringent aseptic techniques. All test tubes, pipette tips etc. must be pyrogen-free. Buffers must be prepared by use of sterile, […], preferably water for injection. Use 0.1% pyrogen-free BSA/PBS for all dilutions.
Add 20 μl of HBP derived peptide (in concentrations from 25 to 2500 μM) to 100 μl freshly drawn (less than 4 hours old) citrate whole blood from a healthy human volunteer. Add 20 μl bacterial component (LPS, LTA or PGN) in concentrations from 5 to 5000 ng/ml, preferably 50 to 500 ng/ml. Mix well and incubate for 16-18 hours in an atmosphere of 5% carbon dioxide and at least 95% relative humidity. At the end of the incubation add at least 5 volumes (700 μl) 0.1% BSA/PBS. Mix well. Centrifuge 10 min. at 10.000 g. Aspirate 500 μl supernatant. Determine the level of IL-6 by a specific human immune assay for human IL-6 with sensitivity of at least 3 pg/ml, e.g. Human IL-6 Kit from RnD Systems (cat. no. D 6050).
Negative controls: 100 μl WB plus 40 μl 0.1% BSA/PBS. Positive control: 100 μl WB plus 20 μl LPS (same concentration as used for testing the peptide) and 20 μl 0.1% BSA/PBS.
The human (h20-44) and porcine (p20-44) peptides were synthesized and tested in the screening assay described in Example 1. The following parameters were examined: (a) abililty to induce inflammation on their own (i.e. in the absence of any bacterial component), (b) ability to amplify or inhibit inflammation induced by a bacterial component, such as LPS from the Gram negative bacteria E. coli and PGN or Purified Cell Wall (PCW) from a Gram positive bacteria. As measure for immune stimulation secretion of the release of IL-6 in citrated whole blood was used. The peptides were tested in the concentrations 0.09, 0.18, 0.36 and 0.71 mg/ml blood. […]

Assay [2] relates to monocytes in WB. The description is as above. The note with it: 250 μg/ml PGN from S. aureus.
The next assay relates to Human Neutrophils (PMNs). Description: Apoptosis of isolated human neutrophils, TUNEL assay with flow cytometry. The note with it: 25 μg HBP per ml sample; 24 h culture; control about 70%. On the procedure: The screening for anti-apoptotic peptides is carried out essentially as described by Shrotri M S. et al., 2000.
Peripheral blood from normal volunteers was collected and PMNs were separated by density gradient using Ficoll-Hypaque (Sigma Chemical Co.). PMNs obtained were divided into 1-ml samples with […] and were treated and analyzed as per the protocols described below.
Cell pellets were obtained by centrifugation at 300 g and fixed with 1% paraformaldehyde for 15 min at 4° C. Cells were washed twice and permeabilized with 70% ice-cold ethanol and stored at […]. Cells samples were washed twice and stained by the terminal dUTP nick-end labeling (TUNEL) assay using the APO-BRDU kit (Phoenix Flow Systems, San Diego, Calif.), following the manufacturer's instructions. Briefly, in this assay, the enzyme terminal deoxynucleotidyl transferase (TdT) catalyzes the addition of nucleotides to DNA strand breaks in the apoptotic cells, which are subsequently labeled with fluorescein isothiocyanate (FITC)-conjugated antinucleotide antibodies. The fluorescent cells are the apoptotic cells that are then identified or assessed using the flow cytometer (EPICS Elite, Beckman-Coulter, Hialeah, Fla.). These apoptotic cells were also visually confirmed by confocal microscopy (Meridian Instruments Inc., Okemos, Mich.).
Time zero group. […]
On the technique in general: In flow cytometry, cells or beads pass a laser one at a time.

[3] abbreviates: PGN 50 μg/ml from Staphylococcus aureus, peptide 0.09-0.71 mg/ml blood, FIG. 3.

With “pHBP 20-44 acetylated and amidated at the N- and C-terminal amino acids: pHBP 20-44 acetylated and amidated at the N- and C-terminal amino acids, respectively (Ac-KQGRPFCAGALVHPRFVLTAASCFR-NH2; cysteine pairing not given here; UniProt P80015 46-70, looked up, fragment)”, the “LPS induced IL-6 production, variant compared to the unsubstituted peptide” value in the assay on monocytes in WB [1] was “more inhibitory”. Also, the “PGN induced IL-6 production, variant compared to the unsubstituted peptide” value in the assay on monocytes in WB [1] (in the presence of PGN) is given as “more inhibitory”.

Consider “KQGRHFCGGALIHARFVMTAASCFR (Peptide fragment amino acid residues 20-44 of hHBP with mutations N20K,Q44R) [hHBP 20-44 with both N- and C-terminal residues substituted with the corresponding porcine residues]”, for which the “LPS induced IL-6 production, variant compared to the unsubstituted peptide” value with monocytes in WB [1] is listed as “nearly non-stimulating”. The “PGN induced IL-6 production, variant compared to the unsubstituted peptide” value in the assay with monocytes in WB [1] (in the presence of PGN) is recorded as “inhibitory”.

Consider “NQGRPFCAGALVHPRFVLTAASCFR (Peptide fragment amino acid residues 20-44 of pHBP with mutation K20N) [pHBP 20-44 whose N-terminal amino acid residue was substituted with the human N-terminal residue]”, for which, in the assay on monocytes in WB [1], the “LPS induced IL-6 production, variant compared to the unsubstituted peptide” value was “less inhibitory”. Further, in the assay with monocytes in WB [1] (in the presence of PGN), the “PGN induced IL-6 production, variant compared to the unsubstituted peptide” value is given as “less inhibitory”.

As for “hHBP 20-44 acetylated at the N-terminal amino group and amidated at the C-terminal carboxyl group: hHBP 20-44 acetylated at the N-terminal amino group and amidated at the C-terminal carboxyl group (Ac-NQGRHFCGGALIHARFVMTAASCFQ-NH2; cysteine pairing not given here; UniProt P20160 46-70, looked up, fragment)”, the “fold stimulation of the PGN mediated IL-6 production” value in the assay with monocytes in WB [2] (FIG. 5 compared to FIG. 2) was “more than ten fold stimulation”. Also, the “effect on PGN induced IL-6 secretion” value in the assay on monocytes in WB [2] (normalized to PGN alone, FIG. 5) was “stimulated the IL-6 secretion in a dose dependant way”.

Regarding “NQGRHFCGGALIHARFVMTAASCFQ [human HBP 20-44]”, the “sum of the IL-6 secretion induced by LPS and peptide individually” value in the assay with monocytes in WB [1] (100 ng/ml LPS alone plus 0.71 mg/ml peptide alone) was 14,178 pg/ml. For the same molecule, the “IL-6 secretion, peptide and LPS together” value in the assay on monocytes in WB [1] (100 ng/ml LPS plus 0.71 mg/ml peptide) is 12,130 pg/ml. Besides, the “effect on LPS induced IL-6 secretion” value is listed as “increased IL-6 secretion significantly” with monocytes in WB [1] (0.71 mg/ml peptide) and “did not significantly increase” with monocytes in WB [1] (up to 0.36 mg/ml peptide). In the assay with monocytes in WB [1] (peptide 0.09-0.71 mg/ml blood), the “effect on PCW induced IL-6 secretion” value was “increased IL-6 secretion in dose-dependent way”. Also, the “effect on PGN induced IL-6 secretion” value in the assay with monocytes in WB [1] (setting [3]) is given as “increased IL-6 secretion in dose-dependent way”. For the same molecule, the “IL-6 secretion in the absence of bacterial components” value in the assay on monocytes in WB [1] was “significant and dose-dependent increase”.

Take “KQGRPFCAGALVHPRFVLTAASCFQ (Peptide fragment amino acid residues 20-44 of pHBP with mutation R44Q) [pHBP 20-44 with C-terminal amino acid residue replaced with the human C-terminal residue]”: the “LPS induced IL-6 production, variant compared to the unsubstituted peptide” value with monocytes in WB [1] is reported as “the same pattern was observed”. In addition, the “PGN induced IL-6 production, variant compared to the unsubstituted peptide” value with monocytes in WB [1] (in the presence of PGN) is listed as “the same pattern was observed”.

“KQGRPFCAGALVHPRFVLTAASCFR (Peptide fragment amino acid residues 20-44 of pHBP) [porcine HBP 20-44]”: in the assay on monocytes in WB [1] (peptide 0.09-0.71 mg/ml blood), the “effect on LPS induced IL-6 secretion” value is “significantly and dose-dependently inhibited”; the “effect on PCW induced IL-6 secretion” value is “significantly and dose-dependently inhibited”. Further, the “effect on PGN induced IL-6 secretion” value with monocytes in WB [1] (setting [3]) is “significantly and dose-dependently inhibited”. Also, the “IL-6 secretion in the absence of bacterial components” value in the assay on monocytes in WB [1] is given as “no significant or dose-dependent effect”.

Regarding “KQGRPFCAGALVHPQFVLTAASCFR (Peptide fragment amino acid residues 20-44 of pHBP with mutation R34Q) [R34Q pHBP 20-44, substitution of arginine to glutamine in position 34 of pHBP 20-44]”, the “effect on PGN induced IL-6 secretion” value in the assay with monocytes in WB [1] (in the presence of PGN, FIG. 6) is listed as “completely abolished the inhibitory effect”.

B1: HBP: heparin-binding protein (HBP), isolated from azurophile granules of human PMNs; also termed CAP37, azurocidin (protein, listed as Homo sapiens)
chain: IVGGRKARPRQFPFLASIQNQGRHFCGGALIHARFVMTAASCFQSQNPGVSTVVLGAYDLRRRERQSRQTFSISSMSENGYDPQQNLNDLMLLQLDREANLTSSVTILPLPLQNATVEAGTRCQVAGWGSQRSGGRLSRFPRFVNVTVTPEDQCRPNNVCTGVLTRRGGICNGDGGTPLVCEGLAHGVASFSLGPCGRGPDFFTRVALFRDWIDGVLNNPGPGPA
As for B1, in the assay on monocytes in WB [1], the “amplification of cytokine secretion induced by bacterial products” value is on record as “at least three-fold amplification”. For the same molecule, the “cytokine secretion by HBP in itself” value in the assay on monocytes in WB [1] (no bacterial product) is reported as “no measurable effect”. Moreover, the apoptosis in the assay on Human Neutrophils (PMNs) is approximately 45%.
